Experimental data: patent EP0062319A1, “3-Methyl-1-(2-(3-naphthyloxy)-ethyl)-2-pyrazolin-5-one for the treatment of the metastasis and growth of tumour cells” (BAYER AG, priority 1981, dated 1982)

Legend:
[1] = tested on: Lewis-Lungen-Karzinom; assay: Tumour incidence and final tumour weight of subcutaneous Lewis lung carcinoma in mice; type: in vivo, C57BL/6J Mäuse; conditions: killed day 22; for Gewicht: final tumour weight
Source text: Die antineoplastische Wirksamkeit wurde außerdem durch direkte Messung des Wachstums der Tumorzellen in vitro in Gewebekulturen bestimmt. Diese Methode bedient sich des "Plating" oder Aufimpfens einer bekannten Anzahl von Tumorzellen auf ein Wachstumsmedium und der Bestimmung der Wirkung der Anwesenheit der zu prüfenden Verbindung auf die Tumorzellen-Proliferation. Schließlich wurde die antineoplastische Aktivität in vivo in der Weise bestimmt, daß den Mäusen subkutan Tumorzellen injiziert wurden und das Auftreten von Tumorzellenwachstum sowie das Gewicht der wachsenden Tumorzellen in unbehandelten Kontrolltieren und in mit der Pyrazolon-Verbindung behandelten Tieren bestimmt wurden.
3 mg 3-Methyl-1-[2-(2-naphthyloxy)-ethyl]-2-pyrazolin-5-on wurden in 0,6 ml Ethylalkohol gelöst, und die Lösung wurde mit konzentrierter Natronlauge auf einen pH von 9,5 eingestellt.
Syngeneischen C57BL/6J Wirts-Mäusen wurden 1 x 10^5 Lewis-Lungenkarzinom-Zellen (0,2 ml) subkutan in die Achselhöhlenregion injiziert. Nach einem Zeitraum von 24 Stunden wurde die Pyrazolon-Verbindung 21 Tage lang täglich verabreicht. Die Wirkung der Verabreichung von Theophyllin zusammen mit der Pyrazolon-Verbindung wurde ebenfalls untersucht. Während des Zeitraums wurden die Mäuse unter identischen Bedingungen der Temperatur, Lichteinwirkungsdauer, Ernährung etc. gehalten. Die Mäuse wurden 22 Tage nach der Injektion der Tumorzellen getötet und mittels einer Gesamt-Nekropsie auf die Anwesenheit subkutaner Tumoren untersucht. Vorhandene Tumoren wurden entfernt und auf einer Analysenwaage gewogen.

[2] = tested on: B-16 -Melanom-Zellen; assay: Tumour cell proliferation and viability in tissue culture; type: cell-based, Mäuse; conditions: 0,1 to 25 µg/ml; cell counts after 8 days; Fig. 2
Source text: Die antineoplastische Wirksamkeit wurde außerdem durch direkte Messung des Wachstums der Tumorzellen in vitro in Gewebekulturen bestimmt. Diese Methode bedient sich des "Plating" oder Aufimpfens einer bekannten Anzahl von Tumorzellen auf ein Wachstumsmedium und der Bestimmung der Wirkung der Anwesenheit der zu prüfenden Verbindung auf die Tumorzellen-Proliferation. […] wurde die antineoplastische Aktivität in vivo in der Weise bestimmt, daß den Mäusen subkutan Tumorzellen injiziert wurden und das Auftreten von […] sowie […] in unbehandelten Kontrolltieren und in mit der Pyrazolon-Verbindung behandelten […] worden […] von 3 x 10^4 Zellen pro Platte überimpft. Die Zellen wurden in einem Medium aus MEM, Hank's Basic Salt Solution und 10 % […] bei Microbiological Associates, Walkersville, Maryland, kultiviert. Nach 24-stündiger Inkubation bei 37°C wurden die ZellZählungen durch […] Medium wurde […] und durch das oben bezeichnete.Medium und Pyrazolon in einem von 0,1 bis 25 μg/ml […]. Die Kontrollgruppen erhielten nur einen Austausch des Mediums. Danach wurde das Pyrazolon enthaltende Medium jeden zweiten Tag ersetzt. Nach 8 Tagen wurden Zellzählungen wie oben beschrieben durchgeführt, und die Lebensfähigkeit der Zellen wurde nach der weiter oben genannten Vitalfarbstoff-Ausschlußmethode (vital dye exclusive method) bestimmt. Die Daten sind dargestellt als Mittelwert der Zahl […] aus […]. […]

[3] = tested on: B-16a-amelanotischem Melanom; assay: Spontaneous (full) metastasis of subcutaneously injected B-16a melanoma (lung tumour colonies) in mice; type: in vivo, C57BL/6J Mäuse; conditions: for Lungen-Tumor-Kolonien B-16a-Zellen: 1,8 x 10^5 cells s.c., killed day 25, mean ± SEM; for Lungen-Tumor-Kolonien B-16a-Zellen (fraction in brackets): bracketed fraction
Source text: Wie bereits weiter oben festgestellt wurde, ist die Metastase […], die durch eine Reihe komplizierter Vorgänge dargestellt wird. Gegenwärtig finden zwei "Modell"-Systeme für die Untersuchung der in vivo-Metastase verbreitete Anwendung. Das erste Modellsystem umfaßt die subkutane Injektion der Tumorzellen in das Tier. Die subkutane Injektion der Tumorzellen und anschließende Entwicklung eines Primärtumors, gefolgt von spontaner Metastase, wird als "volle" Metastase betrachtet. Ein anderes Modellsystem umfaßt die Injektion der Tumorzellen durch die Schwanzvene. In Anbetracht der Komplexität der Metastase gilt die Schwanzvenen-Injektion als künstliches und nur partielles Modellsystem, da es nur die Vorgänge während des letzteren Teils der Metastase wiedergibt. Das Schwanzvenen-Modellsystem gilt jedoch auch als außerordentlich günstig im Hinblick auf eine Standardisierung der Versuchsbedingungen [vgl."Methods in Cancer Research", Kapitel VII, Academic Press, Inc., 1978].
Als Kontrolltiere wurden (unbehandelte) C57B1/6J-Mäuse nach folgender Arbeitsweise auf volle Metastase untersucht. Zellsuspensionen der B-16 - und 3LL-Karzinom-Zellen, die wie oben unter A und B beschrieben erhalten worden waren, wurden subkutan in die rechte Achselhöhlenregion der männlichen C57BL/6J-Mäuse injiziert (0,66 mm- = 26 gauge -Nadel; 0,2 ml). Injiziert wurden verschiedene Mengen der Zellsuspensionen im Bereich von 1 x 10^5 bis 1 x 10^6 Zellen. Versuche zur partiellen Metastase wurden in der Weise durchgeführt, daß Tumorzellen über die Schwanzvene in die (unbehandelten) Kontroll-Mäuse injiziert wurden. Die Tiere wurden unter identischen Bedingungen der Temperatur, Lichteinwirkungsdauer, Ernährung etc. gehalten. Nach einem Beobachtungszeitraum von 17 bis 30 Tagen wurden die für die volle Metastase und für die partielle Metastase verwendeten Tiere getötet, und die Lungen, Leber, Nieren, Milz und Gehirn-Gewebe wurde entnommen.
Das entnommene Gewebe wurde in Bouin-Lösung fixiert.
Die Zahl der metastatischen Knötchen in jedem Organ wurde mit Hilfe eines Bausch-und-Lomb Stereo-Zoom-Mikroskops bestimmt. Die Untersuchung der Kontroll- Mäuse auf metastatische Knötchen ergab bei 100 % der Tiere positive Befunde in bezug auf metastatische Lungentumoren; die Inkubationszeit für die Erzeugung solcher Metastasen betrug für die 3LL-Tumorzellen 17 bis 21 Tage und für die B-16 a -Tumorzellen 23 bis 30 Tage. In Leber, Nieren, Milz oder Gehirn-Gewebe wurden keine sichtbaren Knötchen beobachtet.
Die Wirkung der Verabreichung der Pyrazolon-Verbindung über einen längeren Zeitraum hinweg auf die Zahl der metastatischen Lungen-Kolonien des B-16 a und des Lewis-Lungen-Karzinoms wurde wie nachstehend beschrieben bestimmt.
3 mg 3-Methyl-1-[2-(2-naphthyloxy)-ethyl]-2-pyrazolin-5-on wurden in 0,6 ml Ethylalkohol gelöst, und die Lösung wurde mit konzentrierter Natronlauge auf pH 9,5 eingestellt.
Syngeneischen C57BL/6J Wirts-Mäusen wurde eine Suspension von 1,8 x 10^5 B-16 a -Zellen subkutan injiziert, die wie vorstehend beschrieben hergestellt wurde. Einer anderen Reihe syngeneischer C57BL/6J Wirts-Mäuse wurde eine Suspension von 1 x 10^5 Lewis-Lungen-Karzinom-Zellen, erhalten wie vorstehend beschrieben, subkutan injiziert. […] Die Kontroll-Mäuse und die behandelten Mäuse wurden unter identischen Bedingungen der Temperatur, Lichteinwirkungsdauer, Ernährung etc. gehalten. Die Mäuse, die die B-16 -Tumorzellen injiziert erhalten hatten wurden 25 Tage nach der Injektion der Tumorzellen getötet; die Mäuse, denen die Lewis-Lungen-Karzinom-Zellen injiziert worden waren, wurden 21 Tage nach der Injektion der Tumorzellen getötet.

`CC1=NN(CCOc2ccc3ccccc3c2)C(=O)C1` [3-Methyl-1-[2-(2-naphthyloxy)-ethyl]-2-pyrazolin-5-on] was tested, and the “Tumor-Häufigkeit Anzahl” value ([1]; 0.01 mg daily s.c. for 21 days from 24 h after 10^5 3LL cells s.c.) was 3/12, the Tumor-Häufigkeit % ([1]; 0.01 mg daily s.c. for 21 days) was 25% and the Tumor-Häufigkeit % ([1]; 0.02 mg daily s.c. for 21 days) was 33%. For the same compound, the “Tumor-Häufigkeit Anzahl” value ([1]; 0.02 mg daily s.c. for 21 days) was 4/12, the Tumor-Häufigkeit % ([1]; 0.08 mg daily s.c. for 21 days) was 8% and the “Tumor-Häufigkeit Anzahl” value ([1]; 0.08 mg daily s.c. for 21 days) was 1/12. The “Gewicht” value ([1]; 0.01 mg daily s.c. for 21 days) was 0.74 ± 0.46 mg, the “Gewicht” value ([1]; 0.02 mg daily s.c. for 21 days) was 0.49 ± 0.27 mg and the “Gewicht” value ([1]; 0.08 mg daily s.c. for 21 days) was 0.16 mg. For the same compound, the Tumorzellen-Proliferation [2] was “die Tumorzellen-Proliferation über den gleichen Dosierungsbereich hemmte”, the “Lungen-Tumor-Kolonien B-16a-Zellen” value ([3]; 0.01 mg daily s.c., colonies on bilateral lung surface) was 1.7 ± 0.7 and the “Lungen-Tumor-Kolonien B-16a-Zellen (fraction in brackets)” value ([3]; 0.01 mg daily s.c.) was 7/12. For the same compound, the “Lungen-Tumor-Kolonien B-16a-Zellen” value ([3]; 0.02 mg daily s.c.) was 2.5 ± 0.9, the “Lungen-Tumor-Kolonien B-16a-Zellen (fraction in brackets)” value ([3]; 0.02 mg daily s.c.) was 7/12 and the “Lungen-Tumor-Kolonien B-16a-Zellen” value ([3]; 0.04 mg daily s.c.) was 3.1 ± 0.8. For the same compound, the “Lungen-Tumor-Kolonien B-16a-Zellen (fraction in brackets)” value ([3]; 0.04 mg daily s.c.) was 8/12, the “Lungen-Tumor-Kolonien B-16a-Zellen” value ([3]; 0.08 mg daily s.c.) was 1.4 ± 0.8 and the “Lungen-Tumor-Kolonien B-16a-Zellen (fraction in brackets)” value ([3]; 0.08 mg daily s.c.) was 5/12.
